Publication PMC10603063, “A quantitative method for determination of colistin E2 methanesulphonate in human plasma by ^15N-labeled colistin E2” (Scientific Reports, 2023)
Where two headings read alike, the source gives them in different places. Peptide text beside a SMILES is read from it.

Experiments:
[1] = Experimental: (§1) Referring to Zhou et al.[10], for each plasma sample, 100 µL of 5% ammonia was added to a mixture containing 100 µL of CMS E2 calibration plasma standards or QCs and 20 µL of 15 µg/ml IS solution. After vortexing, the mixtures were loaded onto WCX SPE plates. Before loading the sample, the WCX SPE plates were preconditioned with 1 ml methanol followed by 1 mL water to activate the extraction. The plate was sequentially washed with 1 mL of water, 1 mL of methanol, 1 mL of 70% ACN with 2% ammonia, and 1 ml 0.5% FA. Subsequently, 300 µL of 70% ACN with 6% FA was used to elute the analytes twice. Total eluents (600 µL) were collected with an SPE 96-Deep Square Well collection plate, mixed in a 96-well plate mixer, and analyzed by UHPLC-MS/MS.
(§2) The stability of colistin E2 was evaluated at two levels (low and high QCs).
(§3) The hydrolysis of CMS E2 is temperature dependent; the lower the temperature, the slower the hydrolysis rate. The samples were processed in ice water. Therefore, we studied their stability in ice-water. In the presence of CMS E2 (the spiked concentration was 50 times the concentration of colistin, which can cover the clinical samples), the stability of colistin E2 was also evaluated under the following conditions: on the bench top in ice water for 21 h, four freeze–thaw cycles, storage at − 20 ℃ and − 80 ℃ (at least 98 days), and storage of extracts at 4 ℃ in an auto-sampler for 22.5 h.

[2] = remark: listed apart in the source
Experimental: as §2
as §3, with “[…],” for “on the bench top in ice water for 21 h,”

[3] = for long-term storage stability: colistin E2-spiked samples, at least 93 days
Experimental: as §1, §2, §3
The method was used for the stability study, and all the following medicinal solutions and plasma samples were prepared and used in an ice water bath and stored at -20 °C after use.
2.6.4 Preparation of plasma quality control sample QC_mix for CMS E2/Colistin E2

[4] = test system: Bordetella bronchitica ATCC4617; experiment: Cylinder-plate potency method of the United States pharmacopoeia; assay type: cell-based
Text: In addition to at least 30 minor polymyxins with very similar physiochemical properties, colistin consists of colistin E1 and colistin E2 (Fig. 1)[6]. According to European Pharmacopoeia records, the components with the same molecular weight as colistin E1 are colistin E1-7MOA and E1-I, and colistin E2 is colistin E3, E2-I, and E1-Nva. In short, except for the principal components colistin E1 and E2, other components with similar physicochemical properties account for nearly 20% of colistin. These components could not be separated from colistin E1/E2 using mobile phases containing formic acid but were identified as a single peak of polymyxin E1/E2 by HPLC. This neglected problem actually brings some interferes with single component or colistin quantification. In the process of developing CMS, we successfully purified single components of colistin E1 and E2 with a purity of more than 99% by preparative HPLC using a specific salt mobile phase.

[5] = stock solution in methanol: water (1: 1)
Experimental: as §2
The standard curve stock solution and the quality control stock solution for colistin E2 need to be prepared from different weighing. All solutions were kept at -20°C.
The colistin E2 reference was accurately weighed and dissolved with an appropriate amount of methanol: water (1: 1) to prepare a stock solution SS-A with a concentration of 3 mg/mL.

Compound | duration of stability in the auto-sampler ([1]; extracts after WCX SPE removal of CMS E2, auto-sampler (4℃)) | stability of extracts ([1]; extracts at 4 ℃ in an auto-sampler for 65.5 h, without CMS E2) | %Change, processed sample stability ([1]; sample extracts of matrix spiked with CMS E2, 22.5 h in an auto-sampler (4℃), UHPLC-MS/MS) | percentage of change in blood spiked with CMS E2 ([2]; blood spiked with CMS E2, ice water for 60 min) | stability in fresh whole blood ([2]; fresh whole blood (EDTA-K2), bench top in ice water for 66 min, without CMS E2) | benchtop stability ([3]; colistin E2-spiked plasma, low and high QCs, without CMS E2, bench top in ice water for 24 h) | freeze–thaw stability ([3]; colistin E2-spiked plasma, low and high QCs, without CMS E2, four freeze–thaw cycles) | long-term storage stability ([3]; low and high QCs, −20 ℃) | long-term storage stability ([3]; low and high QCs, −80 ℃) | %Change, benchtop stability ([3]; human plasma (EDTA-K2) spiked with CMS E2 (50 times colistin concentration; QC_mix 24/0.48 µg/mL), 21 h in ice water, UHPLC-MS/MS) | %Change, long-term stability ([3]; human plasma spiked with CMS E2, 41 d in freezer (−20℃), UHPLC-MS/MS) | antibacterial activity (comparison of purified single components) ([4]; single components purified to more than 99% by preparative HPLC) | stability of stock solutions ([5]; stored at ambient for 21 h) | stability of stock solutions, long-term ([5]; −20 ℃ for at least 97 days) | potency ([4]; cylinder-plate method, United States pharmacopoeia, test bacteria Bordetella bronchitica ATCC4617)
CC(C)CCCCC(=O)N[C@@H](CCN)C(=O)N[C@H](C(=O)N[C@@H](CCN)C(=O)N[C@H]1CCNC(=O)[C@H]([C@@H](C)O)NC(=O)[C@H](CCN)NC(=O)[C@H](CCN)NC(=O)[C@H](CC(C)C)NC(=O)[C@@H](CC(C)C)NC(=O)[C@H](CCN)NC1=O)[C@@H](C)O [colistin E2] (HELM PEPTIDE1{[CC(C)CCCCC(=O)[*:2]].[Dab].T.[Dab].[Dab].[Dab].[dL].L.[Dab].[Dab].T}$PEPTIDE1,PEPTIDE1,5:R3-11:R2$$$V2.0) | at least 22.5 h | no degradation | 4.4% | less than 15% | no degradation | no degradation | no degradation | no degradation | no degradation | 2.0% | 1.3% | higher than that of E1 | no degradation | no degradation | 
colistin E2 methanesulphonate [CMS E2] |  |  |  |  |  |  |  |  |  |  |  |  |  |  | 611 µg/mg
